Key:
[1] = system: mCitrine-KRas in MiaPaCa-2 cells; test: KRas localization analysis by confocal microscopy; format: cell-based, human; conditions: 5 μM; MiaPaCa-2 cells ectopically expressing mCitrine-KRas
Protocol: Panc-TU-1, MiaPaCa-2, PANC-1 and BxPC-3 cell lines were cultured in DMEM supplemented with 10% fetal calf serum, 1% L-glutamine (PAN-Biotech) and 1% non-essential amino acids (PAN-Biotech). The cells were maintained in a humidified incubator at 37° C. and 5% CO2. For microscopy, cells were seeded in four-well Lab-Tek chambers (Thermo Scientific) in DMEM without phenol red, supplemented with 25 mM HEPES. Transfection was performed with either Effectene (Qiagen) or Lipofectamine 2000 (Invitrogen). Confocal images were acquired with a confocal laser-scanning microscope (FV1000, Olympus). For detection of mCitrine-RheB and mCitrine-KRas, the sample was excited using the 488 nm wavelength of an argon laser. Fluorescence signal was collected through an oil immersion objective (×60/1.35 UPlanSApo, Olympus) and spectrally filtered by a band pass filter from 500 nm to 550 nm. For detection of mCherry-PDEδ, a 561 nm diode laser was used for excitation. The fluorescence emission was spectrally filtered by a band pass filter from 600 to 700 nm. Confocal images of cells were segmented into plasma membrane and cytoplasm whereby the plasma membrane segment contained one third of all pixels. The mean intensity of plasma membrane and cytoplasm were normalized to the total mean intensity of each cell at each time point (FIG. 4C).

[2] = molecular target: interaction between mCherry-PDE6δ and mCitrine-RheB (Homo sapiens (Human), UniProt O43924); test: FLIM-FRET of mCitrine-RheB and mCherry-PDE6δ interaction in living MDCK cells; format: cell-based; conditions: fit of dose-response of interacting fraction α, ± s.e.m., read-out: apparent "in-cell" KD
[3] = system: colorectal cancer cell lines DiFi, HCT-116, Hke3, Hkh2, HT29 and SW480; test: Real time cell analysis (RTCA) proliferation of colorectal cancer cell lines; format: cell-based, human
PDEδ [4] = molecular target: T1, PDEδ (Homo sapiens (Human), UniProt O43924); test: Fluorescence polarization competition binding assay: displacement titration of labeled Atorvastatin probe for KD; conditions: fluorescence polarization assay; activity classes; read-out: KD
Protocol: Example D.2: Displacement Titrations of Labeled Atorvastatin-Probe for the Determination of KD Values
Displacement Titrations of Labeled Atorvastatin-Probe for the Determination of KD Values:
The purification was followed by size exclusion gel filtration on a Superdex 75 S26/60 column using buffer A (25 mM Tris-HCl, pH 7.5, 150 mM NaCl and 3 mM DTE).

Panc-Tu-I cells = test: Real time cell analysis (RTCA) proliferation; format: cell-based, human
Protocol: (§1) Panc-TU-1, MiaPaCa-2, PANC-1 and BxPC-3 cell lines were cultured in DMEM supplemented with 10% fetal calf serum, 1% L-glutamine (PAN-Biotech) and 1% non-essential amino acids (PAN-Biotech). The cells were maintained in a humidified incubator at 37° C. and 5% CO2. For microscopy, cells were seeded in four-well Lab-Tek chambers (Thermo Scientific) in DMEM without phenol red, supplemented with 25 mM HEPES. Transfection was performed with either Effectene (Qiagen) or Lipofectamine 2000 (Invitrogen). RTCA measurements of Panc-TU-1, MiaPaCa-2, PANG-1 and BxPC-3 cell lines were performed on a Dual Plate xCELLigence instrument (Roche Applied Science, Indianapolis, Ind.). This device measures a dimensionless cell index which is based on impedance. […] After seeding, cells were allowed to settle for 15 min at room temperature before insertion into the xCELLigence instrument in a humidified incubator at 37° C. with 5% CO2. […] The impedance was measured in 15 min intervals for up to 100 h. Assays were performed in triplicates, each containing two technical duplicates. The cell index was normalized to 1 at the time point of drug administration.

MiaPaCa-2 cells = test: Real time cell analysis (RTCA) proliferation; format: cell-based, human
Protocol: as §1

[5] = system: human peripheral blood mononuclear cells (hPMPBC); test: Cytotoxicity assay with human peripheral blood mononuclear cells; format: cell-based
Protocol: Cells were incubated with test substances at titrated concentrations ranging between 30 μM and 1.7 nM for 72 h. After the incubation period, the cells were fixed with 10% (wt/vol) trichloroacetic acid and stained for 30 min with sulforhodamine B (SRB) staining solution prior to removing unbound dye by washing repeatedly with 1% (vol/vol) acetic acid. The protein-bound dye is dissolved in 10 mM Tris base solution for OD (optical density) determination at 510 nm using a microplate reader.

[6] = system: colorectal cancer cell lines (HCT-116, Hke3, SW480, Hkh2, DiFi, HT29); test: Apoptosis / cell viability assay (7-AAD staining, flow cytometry); format: cell-based, human; conditions: all tested cell lines (Hkh2, DiFi, HT29)
Protocol: Apoptosis assays are performed on a LSR II flow cytometer (BD Bio-science). For this, cells are seeded in 6-well plates with an amount of 2×10^5 cells per well. Cells are treated with different concentrations of compound 19 (Deltasonamide 2) for 24 h. DMSO is used as a control. Subsequently, the supernatant is collected in FACS vials and the cells are washed with 1 mL PBS. Afterwards, cells are detached with 0.5 mL Accutase™ (EMD Millipore Corporation). The detached cells are resuspended in 1 mL PBS and transferred to the respective FACS vials. The vials are centrifuged at 200 g for 5 min. The supernatant is discarded and the cells are washed twice with PBS. Cell pellets are re-suspended in 100 μL PBS containing 5 μL of 7-AAD. Samples are vortexed and incubated in the dark at RT for 15 min. Afterwards, 200 μL PBS are added and the samples are transferred to fresh FACS vials through filter lids. The samples are measured within one hour after transfer using 488 nm as excitation wave length and the emission filter 695/40. The measurements are acquired and gated with the BD FACSDiva™ software.

in vitro = conditions: human, Caco-2, pH 6.5
Protocol: Caco-2 Permeability Assay:
The compound concentration was measured in the receiver as well as the donor well.

PDEδ [7] = molecular target: T1, PDEδ; test: Cellular thermal shift assay / thermal protein profiling in Jurkat cell lysate; conditions: 1 μM
[8] = molecular target: RPL31 (Ribosomal Protein L31) (Homo sapiens (Human), UniProt P62899); test: as above; conditions: read-out: shift in melting temperature
[9] = even at submicromolar concentrations

Kd [2] [nM]	Structure (SMILES)	KRas plasma membrane localization [1]	proliferation (RTCA) ([3]; DiFi, HCT-116, Hke3, Hkh2, HT29 and SW480, even at lower micromolar concentrations)	concentrations showing growth inhibitory effect and reduced cell viability ([3]; cell lines containing oncogenic KRas mutations (HCT-116, Hke3, and SW480)) [µM]	Kd (PDEδ [4]) [nM]	reduction of growth (Panc-Tu-I cells; at 1.5 μM)	proliferation (RTCA) (Panc-Tu-I cells; [9])	reduction of growth rate (MiaPaCa-2 cells; at 750 nM)	proliferation (RTCA) (MiaPaCa-2 cells; [9])	concentration up to which hPMBCs proliferation is not impaired [5] [µM]	concentration showing unspecific toxicity [6]	Papp A→B at 2 h, 10 µM (in vitro) [×10⁻⁶ cm/s]	Papp B→A at 2 h, 10 µM (in vitro) [×10⁻⁶ cm/s]	efflux ratio at 2 h, 10 μM (in vitro)	selectivity of protein engagement (only PDE6δ and RPL31 engaged) (PDEδ [7]; 5492 proteins identified)	higher signal intensities of soluble PDEδ compared to DMSO controls (PDEδ [7]; […])	ΔTm at 1 µM [8] [°C]
61 ± 5	CNc1nccc(CN([C@H]2CC[C@H](N)CC2)S(=O)(=O)c2ccc(S(=O)(=O)N(Cc3ccc(Cl)cc3)C3CCCC3)cc2)n1 [Compound 19, N1-((trans)-4-aminocyclohexyl)-N4-(4-chlorobenzyl)-N4-cyclopentyl-N1-((2-(methylamino)pyrimidin-4-yl)methyl)benzene-1,4-disulfonamide]	loss of KRas plasma membrane (PM) localization	strongly reduced proliferation	1.5 to 3	1 to 30	about 50%	strongly reduced proliferation	about 50%	strongly reduced proliferation	≥ 30	above 6 μM	0.9	2.7	2.9	–	–	–
–	Nc1cc(CN(CC2CCNCC2)S(=O)(=O)c2ccc(S(=O)(=O)N(Cc3ccc(Cl)cc3)C3CCCC3)cc2)ccc1C(=O)O [Compound 22, 2-amino-4-(((4-(N-(4-chlorobenzyl)-N-cyclopentylsulfamoyl)-N-(piperidin-4-ylmethyl)phenyl)sulfonamido)methyl)benzoic Acid]	–	–	–	1 to 30	–	–	–	–	–	–	0.9	0.6	0.6	very selective inhibitor	26-28%	3
